# Assay results: patent US12054510B2, “2′ and/or 5′ amino-acid ester phosphoramidate 3′-deoxy adenosine derivatives as anti-cancer compounds” (Nucana plc, priority 2014, dated 2024)
# Experiments:
# Assay type in all cases: cell-based
# [1] = test system: HEL92.1.7; test: Solid tumour and haematological malignancy assay (CellTiterGlo); conditions: Homo sapiens, HEL 92.1.7, 72 h, read-out: MI %
# Procedure: (§1) In vitro viability assay were performed to assess the effects of compounds on cell viability in selected cell lines over 72 hr using the CellTiterGlo (CTG, Promega-G7573) assay. […] Cell viability assay using CellTiterGlo in 96-well plate were performed. Compound treatment 72 hrs, standard growth conditions, duplicates. Compounds were dissolved to 40 mM with thawed 100%. […] After compounds were dissolved in media, media containing compounds were warmed to 37° C. in incubator and then compounds in media were added to cell plates (50 μl+50 μl) in duplicates. […] All compound solubilities were checked and recorded again, then the plates were transferred to CO2 tissue culture incubator immediately and incubated for 3 days. DMSO final concentration is 0.5%.
# [2] = test system: MCF7; test: as above; conditions: Homo sapiens, MCF7, 72 h; for IC50: read-out: IC50 (absolute IC50); for Emax: read-out: MI %
# Procedure: as §1
# [3] = test system: HepG2; test: as above; conditions: Homo sapiens, HepG2, 72 h; for Emax: read-out: MI %
# Procedure: as §1
# [4] = test system: MiaPaCa-2; test: as above; conditions: Homo sapiens, MIA PaCa-2, 72 h, read-out: MI %
# Procedure: as §1
# [5] = test system: HL-60; test: as above; conditions: Homo sapiens, HL-60, 72 h, read-out: MI %
# Procedure: as §1
# [6] = test system: KG-1; test: as above; conditions: Homo sapiens, KG-1, 72 h; for IC50: read-out: IC50 (absolute IC50); for Emax: read-out: MI %
# Procedure: as §1
# [7] = test system: HT29; test: as above; conditions: Homo sapiens, HT-29, 72 h; for IC50: read-out: IC50 (absolute IC50); for Emax: read-out: MI %
# Procedure: as §1
# [8] = test system: K562; test: as above; conditions: Homo sapiens, K562, 72 h; for IC50: read-out: IC50 (absolute IC50); for Emax: read-out: MI %
# Procedure: as §1
# [9] = test system: MOLT-4; test: CellTiterGlo cell viability assay, initial screening; conditions: for M.I. %: maximum percentage inhibition of cell viability: MOLT-4, 72 hr, Table II
# Procedure: (§2) In vitro viability assays were performed to assess the effects of compounds on cell viability in 7 selected cell lines over 72 hr using the CellTiterGlo (CTG, Promega-G7573) assay. The tests were performed in duplicates with treatment of compounds at 9 points, 3.16 folds titration in 96 well plates over ˜72 hr. The compound starting concentrations were […]. Cell viability assay using CellTiterGlo in 96-well plate were performed. The compound treatment was 72 hrs, under standard growth conditions, and in duplicate. Compounds were dissolved to 40 mM with thawed […]. Compounds were serially diluted at 3.16 fold in thawed DMSO, and warmed to 37° C. before being dissolved in media (2 μl+200 μl). After compounds were dissolved in media (media was also warmed to 37° C.). Media containing compounds were warmed to 37° C. in incubator and then compounds in media were added to cell plates (50 μl+50 μl), in duplicates. The compounds final concentrations were from […] to 19.9 nM. All compound solubilities were checked and recorded again, then the plates were transferred to CO2 tissue culture incubator immediately and incubated for 3 days. DMSO final concentration is 0.5%.
# [10] = test system: MCF-7; test: as above; conditions: MCF-7; 72 hr; Table II
# Procedure: as §2
# [11] = test system: HepG2; test: as above; conditions: for M.I. %: maximum percentage inhibition of cell viability: HepG2, 72 hr, Table II; for IC50: Homo sapiens, HepG2, 72 h, read-out: IC50 (relative IC50)
# Procedure: as §2
# [12] = test system: HL-60; test: as above; conditions: for M.I. %: maximum percentage inhibition of cell viability: HL-60, 72 hr, Table II; for IC50: Homo sapiens, HL-60, 72 h, read-out: IC50 (relative IC50)
# Procedure: as §2
# [13] = test system: KG-1; test: as above; conditions: KG-1; 72 hr; Table II
# Procedure: as §2
# [14] = test system: CCRF-CEM; test: as above; conditions: CCRF-CEM; 72 hr; Table II
# Procedure: as §2
# [15] = test system: K562; test: as above; conditions: 72 hr, Table II
# Procedure: as §2
Compound,Emax [1] [%],IC50 [2] [µM],Emax [2] [%],Emax [3] [%],Emax [4] [%],Emax [5] [%],IC50 [6] [µM],IC50 [7] [µM],Emax [7] [%],IC50 [8] [µM],M.I. %: maximum percentage inhibition of cell viability [9] [%],M.I. %: maximum percentage inhibition of cell viability [10] [%],M.I. %: maximum percentage inhibition of cell viability [11] [%],IC50 [11] [µM],M.I. %: maximum percentage inhibition of cell viability [12] [%],IC50 [12] [µM],M.I. %: maximum percentage inhibition of cell viability [13] [%],M.I. %: maximum percentage inhibition of cell viability [14] [%],M.I. %: maximum percentage inhibition of cell viability [15] [%],Emax [6] [%],other results
"COC(=O)C(C)(C)NP(=O)(OC[C@@H]1C[C@@H](O)[C@H](n2cnc3c(N)ncnc32)O1)Oc1cccc2ccccc12 (stereo partly drawn) [E, Methyl 2-(((((2S,4R,5R)-5-(6-amino-9H-purin-9-yl)-4-hydroxytetrahydrofuran-2-yl)-methoxy)(naphthalen-1-yloxy)phosphoryl)amino)-2-methylpropanoate]",101,5 to 15,89,67,91,95,15 to 100,15 to 100,76,5 to 15,97,78,59,15 to 100,74,15 to 100,69,90,81,–,IC50 ([3]; read-out: IC50 (absolute IC50)): 15 to 100 µM
"C[C@H](NP(=O)(OC[C@@H]1C[C@@H](O)[C@H](n2cnc3c(N)ncnc32)O1)Oc1cccc2ccccc12)C(=O)OCc1ccccc1 (stereo partly drawn) [B, (2S)-benzyl 2-(((((2S,4R,5R)-5-(6-amino-9H-purin-9-yl)-4-hydroxytetrahydrofuran-2-yl)methoxy)(naphthalen-1-yloxy)phosphoryl)amino)propanoate]",98,0.1 to 5,96,98,98,99,5 to 15,5 to 15,98,0.1 to 5,100,99,95,–,100,5 to 15,100,100,97,97,"Emax [8]: 99%; IC50 ([9]; Homo sapiens, MOLT-4, 72 h, read-out: IC50 (relative IC50)): 0.1 to 5 µM"
"CCOC(=O)CCc1ccccc1OP(=O)(N[C@@H](C)C(=O)OCc1ccccc1)OC[C@@H]1C[C@@H](O)[C@H](n2cnc3c(N)ncnc32)O1 (stereo partly drawn) [F, (2S)-benzyl 2-(((((2S,4R,5R)-5-(6-amino-9H-purin-9-yl)-4-hydroxytetrahydrofuran-2-yl)methoxy)(2-(3-ethoxy-3-oxopropyl)phenoxy)phosphoryl)amino)propanoate]",99,5 to 15,103,79,101,96,15 to 100,15 to 100,89,–,100,99,84,15 to 100,100,15 to 100,98,99,91,95,Emax [8]: 93%
